Measurements published in US20260132128A1, “COMPOUND FOR RECOVERING P53 MUTATION FUNCTION AND USE THEREOF” (SHENZHEN ZHONGGE BIOLOGICAL TECHNOLOGY CO., LTD., priority 2022, published 2026).

Assays:
[1] = Pharmacokinetic test in mice; type: in vivo; details: male, ICR, mouse, plasma; for AUC / Cmax: 25 mg/kg, po 25 mpk; for clearance: 2.5 mg/kg, iv 2.5 mpk
Description: ICR male mice (15 to 35 g, 5 to 10 weeks old, Shanghai Xipuer-Bikai Experimental Animal Co., Ltd.) were selected as test animals in this study. The LC-MS/MS method was used to quantitatively determine drug concentrations in the plasma of mice at different time points after intravenous injection or oral gavage administration of the test compound to evaluate the pharmacokinetic characteristics of the compound in mice. The clear solution of the test compound was injected into ICR mice via the tail vein (without fasting, solvent: 40% hydroxypropyl-β-cyclodextrin) and administered to ICR mice by oral gavage (fasting for 10 to 14 hours, free drinking water, solvent: 0.2% hydroxypropyl cellulose, 0.5% Tween 80). For intravenous administration, blood was collected from the submandibular venous plexus at 0.033, 0.083, 0.25, 0.5, 1, 2, 4, 8, and 24 hours after administration, placed in an anticoagulant tube with EDTA-K2 (Jiangsu Kangjian Medical Supplies Co., Ltd.), mixed, and centrifuged at 2-8° C., 6800 g for 6 minutes to obtain plasma; for oral gavage administration, blood was collected from the submandibular venous plexus at 0.083, 0.25, 0.5, 1, 2, 4, 6, 8, and 24 hours after administration, placed in an anticoagulant tube with EDTA-K2 (Jiangsu Kangjian Medical Supplies Co., Ltd.), mixed, and centrifuged at 2-8° C., 6800 g for 6 minutes to obtain plasma. The blood drug concentration was determined by LC-MS/MS, and the relevant pharmacokinetic parameters were calculated by the non-compartmental linear logarithmic trapezoidal method using Phoenix WinNonlin™ Version 7.0 (Pharsight, USA) pharmacokinetic software.

[2] = Caco-2 cell permeability test; type: in vitro ADME; details: human, pH 7.4, Caco-2, 10 μM; for Papp A→B at 120 min, 10 μM: A to B; for Papp B→A at 120 min, 10 μM: B to A
Description: Caco-2 cells (ATCC, Cat. No. HTB-37) were inoculated to a 96-well plate (Corning HTS Transwell, Cat. No. 3391) at 1.25×10^5/cm2, and the culture medium (DMEM+10% FBS+1% Penicillin-Streptomycin Liquid (100×)+1% NEAA) was replaced every 3 to 4 days. The plate was placed in an incubator at 37° C. with 5% CO2 until a confluent cell monolayer was formed after 21 to 28 days. Before the transport experiment, the culture medium was removed from the cell culture plate, and the plate was washed twice with pre-warmed HBSS buffer (10 mM HEPES, pH 7.4), and 100 μL of HBSS buffer was added to each well. After incubation at 37° C. for 30 minutes, the TEER value was measured using a cell resistance meter (Millicell-ERS2) to confirm the integrity and density of the monolayer cells. The HBSS buffer was discarded, the upper plate containing the cell monolayer membrane was transferred to the corresponding receiving plate, 10 mM test compound stock solution was diluted to a concentration of 10 μM with HBSS transport buffer containing 0.5% BSA, and it was added to the apical side (A side) and basolateral side (B side), respectively. Incubation was carried out for 120 min at 37° C., 5% CO2, and 95% relative humidity, and the permeation of the test compound from A side to B side or from B side to A side and the efflux rate of the compound were determined. The test compound and the reference compound were quantified by LC-MS/MS analysis based on the peak area ratio of analyte/internal standard. The apparent permeability coefficient Papp (cm/s) was calculated using the following formula:
[formula] • wherein, dCr/dt represented the functional relation between cumulative concentration of compound in receptor compartment and time; V represented the volume of solution in receptor compartment (0.1 mL at apical side, and 0.25 mL at basolateral side); A represented the transport surface area, i.e., the monolayer cell area was 0.0804 cm^2; CO represented the initial concentration of compound in donor compartment.
The efflux ratio was calculated using the following formula: […]
The percent recovery was calculated using the following formula:
[formula] [formula] • wherein, Vd represented the volume of donor compartment (0.1 mL on the apical side and 0.25 mL on the basolateral side); C and Cr represented the final concentrations of the transported compound in the donor and receptor compartment, respectively; Cc represented the compound concentration in cell lysate; Vc represented the volume of insert well (which was 0.1 mL in this experiment).

BxPC-3 cells = experiment: BxPC-3 cell proliferation test (CTG); type: cell-based; details: Homo sapiens, 144 h, 6 days
Description: To detect the inhibitory effects of the aforementioned compounds on the proliferation ability of BxPC-3 cells, 125 BxPC-3 cells (ATCC®CRL-1687) were seeded into a 384-well plate (Corning 3765), 35 μL per well, and placed in a constant temperature incubator at 37° C. and 5% CO2 overnight. Then, 40 nL of the compound was added to the 384-well plate using an Echo 655 Liquid Handler, with a maximum final concentration of 10 μM, 1:3 serial dilution, and in a total of 10 doses. Incubation was performed at 37° C., 5% CO2 for 6 days. The plate was taken out from the incubator and equilibrated at room temperature for 10 minutes. 20 μL of CTG (Promage G7572) was added to each well of the plate according to the platemap. The plate was centrifuged at 1000 rpm for 1 minute. The lysis of cells was induced by mixing on a shaker for 2 minutes. The plate was centrifuged at 1000 rpm for 1 minute. Incubation was performed at room temperature for 10 minutes to stabilize luminescence signals. Luminescence values were recorded by Envision (PerkinElmer 2105-0020). GraphPad 9.0 was used to fit the inhibition rate and compound concentration into a nonlinear regression curve (dose response-variable slope) to calculate GI50, inhibition rate={1−(A−B)/(C−B)}*100%, A=signal value of compound; B=average signal of blank control; C=average signal of negative control (wherein the negative control was 0.1% DMSO).

| SMILES | AUC [1] [ng·h/mL] | Cmax [1] [ng/mL] | clearance [1] [mL/min/kg] | efflux ratio at 120 min, 10 μM [2] | Papp A→B at 120 min, 10 μM [2] [×10⁻⁶ cm/s] | Papp B→A at 120 min, 10 μM [2] [×10⁻⁶ cm/s] | GI50 (BxPC-3 cells) [nM] |
| --- | --- | --- | --- | --- | --- | --- | --- |
| [2H]C([2H])([2H])NC(=O)c1ccc(NCC#Cc2cc3c(NC4CCC(N5CC6(COC6)C5)CC4F)cccn3c2CC(F)(F)F)c(OC([2H])([2H])[2H])c1 (single isomer, unassigned) [Compound 74d] | 17400 | 4160 | 17 |  |  |  |  |
| CNC(=O)c1ccc(NCC#Cc2nc3c(NC4CC[C@@H](N5CC6(COC6)C5)C[C@@H]4F)cccn3c2CC(F)(F)F)c(OCF)c1 (stereo partly shown) [Compound 58] |  |  |  | 3.09 | 2.41 | 7.46 | < 1000 |
| COc1cc(C(=O)NC2CC2)ccc1NCC#Cc1nc2c(NC3CC[C@@H](N4CC5(COC5)C4)C[C@@H]3F)cccn2c1CC(F)(F)F (stereo partly shown) [Compound 54] |  |  |  | 2.24 | 2.3 | 5.16 |  |
| CNC(=O)c1ccc(NCC#Cc2nc3c(NC4CCC(N5CC6(COC6)C5)CC4F)cccn3c2CC(F)(F)F)c(OC)c1 (single isomer, unassigned) [Compound 35-6i] | 19700 | 6860 | 20 | 4.31 | 2.66 | 11.4 | < 1000 |
| CNC(=O)c1ccc(NCC#Cc2nc3c(N[C@@H]4CCN(C)C[C@@H]4F)cccn3c2CC(F)(F)F)c(OC)c1 [Compound 5] | 4070 | 1140 | 54 | 8.27 | 2.8 | 23.1 | < 1000 |
| [2H]C([2H])([2H])NC(=O)c1ccc(NCC#Cc2nc3c(NC4CC[C@@H](N5CC6(COC6)C5)C[C@@H]4F)cccn3c2CC(F)(F)F)c(OC([2H])([2H])[2H])c1 (stereo partly shown) [Compound 64] |  |  |  | 1.22 | 4.92 | 5.99 | < 1000 |
